Assay results: patent US11123295B2, “Encholeated antifungal compounds for central nervous system delivery and treatment of Cryptococcus infections” (priority 2016, dated 2021)
Values joined by “and” are separate entries in the source; they are usually repeats but may differ in a detail not shown here. Equal values may be shown once.

Assays:
Format in all cases: in vivo
C. neoformans strain H99 [1] = assay: Trial 2: survival of C. neoformans-infected mice; details: oral 250 mg/kg/day in drinking water
Procedure: Mice were inoculated with C. neoformans, strain H99/ATCC 208821, (American Type Culture Collection, Rockville, Md.), which was prepared as follows. Cells from a C. neoformans suspension were streaked onto yeast extract peptone dextrose (YPD) agar plates, which were then incubated at 37° C. for 48 hours. A well-separated colony was resuspended in 25 milliliters YPD broth containing chloramphenicol and incubated in a flask on a shaking incubator at 37° C. overnight. The cells were recovered by centrifugation at 4,000 rpm for 5 minutes and washed two times in phosphate-buffered saline (PBS) by resuspension and centrifugation. Challenge organisms were quantified by hemocytometry and were diluted with PBS to a final concentration of 10^5 organisms per milliliter. The viable count was confirmed by serially diluting the C. neoformans suspension and plating the inoculum onto YPD agar plates. […]
Survival and brain studies for each of the three trials were used to determine antifungal efficacy. Mortality was recorded throughout each of the three trials. […] The microbiological response to antifungal treatment was evaluated by concentration (in CFU per gram) of C. neoformans in brain tissue. […] Culture plates were incubated at 37° C. for 48 hours, after which the CFU were counted and the number of CFU per gram of brain tissue was calculated. […] The culture-negative plates were counted as having 0 CFU/g. […]

C. neoformans strain H99 [2] = assay: Trial 3: survival of C. neoformans-infected mice
Procedure: (§1) Animals were dosed once or twice daily as stated in Table 3 following daily body weight measurements. 5 mice were used per treatment group and a group of 5 infected, untreated mice was used as a control. […] Fluconazole, where indicated, was dosed either alone or in combination at 25 mg/kg/day in two doses by oral gavage. Agent administration began 72 hours following infection and continued once daily for 28 consecutive days.
Survival and brain studies for each of the three trials were used to determine antifungal efficacy. Mortality was recorded throughout each of the three trials. The animals were necropsied at death and the brain was removed aseptically, weighed, and homogenized in 1 milliliter sterile water. The microbiological response to antifungal treatment was evaluated by concentration (in CFU per gram) of C. neoformans in brain tissue. Serial dilutions using sterile PBS of homogenized brain were plated in duplicate onto YPD agar plates. Culture plates were incubated at 37° C. for 48 hours, after which the CFU were counted and the number of CFU per gram of brain tissue was calculated. The method was sensitive for detection of >10 CFU/g. The culture-negative plates were counted as having 0 CFU/g.

C. neoformans strain H99 [3] = assay: Trial 3: CFU per gram of brain tissue at death; details: PO BID 25 mg/kg/day, individual mice 1-5
Procedure: as §1
Survival and brain studies for each of the three trials were used to determine antifungal efficacy. Mortality was recorded throughout each of the three trials. The animals were necropsied at death and the brain was removed aseptically, weighed, and homogenized in 1 milliliter sterile water. The microbiological response to antifungal treatment was evaluated by concentration (in CFU per gram) of C. neoformans in brain tissue. Serial dilutions using sterile PBS of homogenized brain were plated in duplicate onto YPD agar plates. Culture plates were incubated at 37° C. for 48 hours, after which the CFU were counted and the number of CFU per gram of brain tissue was calculated. The method was sensitive for detection of >10 CFU/g. The culture-negative plates were counted as having 0 CFU/g. […]

Row | Compound | Median survival (C. neoformans strain H99 [1]) [days] | Median survival (C. neoformans strain H99 [2]; oral 250 mg/kg/day in water) [days] | Median survival (C. neoformans strain H99 [2]; PO BID 25 mg/kg/day) [days] | Number of CFU/g of Brain (C. neoformans strain H99 [3])
1 | Nc1[nH]c(=O)ncc1F [5-Flucytosine] | 34 | 47 | – | –
2 | OC(Cn1cncn1)(Cn1cncn1)c1ccc(F)cc1F [Fluconazole] | – | – | 53 | 4,200,000 CFU/g and 4,300,000 CFU/g and 3,900,000 CFU/g and 6,800,000 CFU/g and 11,300,000 CFU/g
